Results: patent publication US20250262201A1, “COMPOUNDS AND METHODS USEFUL FOR STABILIZING PHENYLALANINE HYDROXYLASE MUTATIONS” (Agios Pharmaceuticals, Inc., priority 2022, published 2025)

Target: T1, human PAH with the R408W mutation (Homo sapiens, UniProt P00439, R408W)
T1 construct: expressed in transfected cells
T1 sequence (P00439 1-452 R408W): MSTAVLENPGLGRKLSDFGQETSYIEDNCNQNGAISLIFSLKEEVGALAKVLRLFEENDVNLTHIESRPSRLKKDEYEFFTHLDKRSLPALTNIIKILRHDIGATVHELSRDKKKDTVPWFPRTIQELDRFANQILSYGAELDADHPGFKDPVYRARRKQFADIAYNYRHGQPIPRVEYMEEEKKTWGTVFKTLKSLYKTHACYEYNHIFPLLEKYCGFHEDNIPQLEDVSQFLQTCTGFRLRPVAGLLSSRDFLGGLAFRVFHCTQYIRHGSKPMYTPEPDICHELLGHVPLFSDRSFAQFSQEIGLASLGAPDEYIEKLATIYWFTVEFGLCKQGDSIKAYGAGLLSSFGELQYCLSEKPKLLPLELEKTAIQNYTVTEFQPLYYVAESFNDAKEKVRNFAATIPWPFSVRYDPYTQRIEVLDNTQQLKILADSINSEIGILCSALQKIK
Test: Cell Based Phenylalanine Flux Assay
Parameters: scale not given here
Conditions: not given

Structure (SMILES)	AC50 [µM]
Cn1ncc(C(=O)N2CCc3[nH]cnc3C2c2ccc3ccccc3n2)c1C(F)F (centres unmarked)	1 to 5

Same assay, conditions: A375 R408W cells, 24 hrs with compound, then 20 μM sepiapterin and 800 μM 13C9,15N-Phenylalanine for 4 hours; 13C-Tyrosine by LC-MS; average where tested multiple times

Structure (SMILES)	AC50
Cc1nnc(CC(=O)N2CCc3[nH]cnc3C2c2cn3ccccc3n2)o1 (centres unmarked)	E, E
Cc1ocnc1CC(=O)N1CCc2[nH]cnc2C1c1cn2ccccc2n1 (centres unmarked)	E, E
O=C(CC1(O)CCC1)N1CCc2[nH]cnc2C1c1cn2ccccc2n1 (centres unmarked)	E, E
Nc1nc(C(F)(F)F)c(C(=O)N2CCc3[nH]cnc3C2c2cn3ccccc3n2)o1 (centres unmarked)	E, E
CC(C)(O)c1nc(C(F)(F)F)c(C(=O)N2CCc3[nH]cnc3C2c2ccc3ccccc3n2)o1 (centres unmarked)	E, E
Cn1ccc(-c2nc(C(F)F)c(C(=O)N3CCc4[nH]cnc4C3c3ncc4ccccc4n3)o2)n1 (centres unmarked)	E, E
CC(C)(O)c1nc(C(F)F)c(C(=O)N2CCc3[nH]cnc3C2c2ncc3ccccc3n2)o1 (centres unmarked)	E, E
Cc1nc(C(=O)N2CCc3[nH]cnc3C2c2ncc3ccccc3n2)n(C)n1 (centres unmarked)	E, E
Cn1cc(-c2nc(C(F)(F)F)c(C(=O)N3CCc4[nH]cnc4C3c3ncc4ccccc4n3)o2)cn1 (centres unmarked)	E, E
Cn1cnc(-c2nc(C(F)F)c(C(=O)N3CCc4[nH]cnc4C3c3ncc4ccccc4n3)o2)c1 (centres unmarked)	E, E
O=C(c1oc(-c2ncccn2)nc1C(F)F)N1CCc2[nH]cnc2C1c1ncc2ccccc2n1 (centres unmarked)	E, E
O=C(c1oc(-c2ccncn2)nc1C(F)F)N1CCc2[nH]cnc2C1c1ncc2ccccc2n1 (centres unmarked)	E, E
O=C(c1oc(-c2cncnc2)nc1C(F)F)N1CCc2[nH]cnc2C1c1ncc2ccccc2n1 (centres unmarked)	E, E
CC(C)(O)c1nc(C(F)(F)F)c(C(=O)N2CCc3[nH]cnc3C2c2ncc3ccccc3n2)o1 (centres unmarked)	E, E
O=C(c1ccnn1C(F)F)N1CCc2[nH]cnc2C1c1ncc2ccccc2n1 (centres unmarked)	E, E
O=C(c1oc(-c2ccccn2)nc1C(F)(F)F)N1CCc2[nH]cnc2C1c1ncc2ccccc2n1 (centres unmarked)	E, E
Cn1cc(-c2nc(C(F)F)c(C(=O)N3CCc4[nH]cnc4C3c3ncc4ccccc4n3)o2)cn1 (centres unmarked)	E, E
CN1CCN(c2nc(C(F)F)c(C(=O)N3CCc4[nH]cnc4C3c3ncc4ccccc4n3)o2)CC1 (centres unmarked)	E, E
O=C(c1oc(-c2ccc(F)cn2)nc1C(F)F)N1CCc2[nH]cnc2C1c1ncc2ccccc2n1 (centres unmarked)	E, E
COc1ccc(-c2nc(C(F)F)c(C(=O)N3CCc4[nH]cnc4C3c3ncc4ccccc4n3)o2)nc1 (centres unmarked)	E, E
O=C(c1oc(-c2cnccn2)nc1C(F)F)N1CCc2[nH]cnc2C1c1ncc2ccccc2n1 (centres unmarked)	E, E
O=C(c1oc(-c2ccccn2)nc1C(F)F)N1CCc2[nH]cnc2C1c1ncc2ccccc2n1 (centres unmarked)	E, E
O=C(c1oc(-c2cccnc2)nc1C(F)F)N1CCc2[nH]cnc2C1c1ncc2ccccc2n1 (centres unmarked)	E, E
O=C(c1oc(-c2ccncc2)nc1C(F)F)N1CCc2[nH]cnc2C1c1ncc2ccccc2n1 (centres unmarked)	E, E
O=C(c1oc(N2CCOCC2)nc1C(F)F)N1CCc2[nH]cnc2C1c1ncc2ccccc2n1 (centres unmarked)	E, E
O=C(c1ocnc1C(F)F)N1CCc2[nH]cnc2C1c1ncc2ccccc2n1 (centres unmarked)	E, E
O=C(c1ocnc1C(F)(F)F)N1CCc2[nH]cnc2C1c1ncc2ccccc2n1 (centres unmarked)	E, E

Same assay, conditions: A375 R408W cells, 24 hrs with compound, then 20 μM sepiapterin and 800 μM 13C9,15N-Phenylalanine for 4 hours; 13C-Tyrosine by LC-MS; average where tested multiple times; read-out: AC50

Structure (SMILES)	AC50 [µM]
O=C(c1nnc(-c2cnn(S(=O)(=O)C3CC3)c2)o1)N1CCc2[nH]cnc2[C@H]1c1cc2ccccc2cn1	> 5
Cc1c(-c2nnc(C(=O)N3C[C@@H](C)c4[nH]cnc4[C@@H]3c3cc4ccccc4cn3)o2)cnn1C	1 to 5
C[C@@H]1CN(C(=O)c2nnc(C3(C)CC3)o2)[C@@H](c2cc3ccccc3cn2)c2nc[nH]c21	1 to 5
CC(C)(O)c1ccc2c(C(=O)N3CCc4[nH]cnc4C3c3ccc4ccccc4n3)cnn2c1 (centres unmarked) [listing 1 of 2 here]	1 to 5
CC(C)(O)c1nc(C2CC2)c(C(=O)N2CCCc3[nH]cnc3C2c2cc3ccccc3cn2)o1 (centres unmarked)	1 to 5
CC(C)(O)c1nc(C2CC2)c(C(=O)N2CCc3[nH]cnc3C2c2ccc3ccccc3n2)o1 (centres unmarked)	1 to 5
Cn1nc(C(=O)N2CCc3[nH]cnc3C2c2ccc3ccccc3n2)c2ccccc21 (centres unmarked)	1 to 5
O=C(c1n[nH]c2ccccc12)N1CCc2[nH]cnc2C1c1ccc2ccccc2n1 (centres unmarked) [listing 1 of 2 here]	1 to 5
O=C(c1nsc2ccccc12)N1CCc2[nH]cnc2C1c1ccc2ccccc2n1 (centres unmarked)	> 5
O=C(c1cnco1)N1CCc2[nH]cnc2C1c1ccc2ccccc2n1 (centres unmarked) [listing 1 of 2 here]	1 to 5
O=C(c1ocnc1-c1ccccn1)N1CCc2[nH]cnc2C1c1ccc2ccccc2n1 (centres unmarked)	1 to 5
CC(C)(O)c1ncc(C(=O)N2CCc3[nH]cnc3C2c2ccc3ccccc3n2)s1 (centres unmarked) [listing 1 of 2 here]	1 to 5
CC(C)(O)c1ncc(C(=O)N2CCc3[nH]cnc3C2c2ccc3ccccc3n2)o1 (centres unmarked)	1 to 5
Cc1ncoc1C(=O)N1CCc2[nH]cnc2C1c1ccc2ccccc2n1 (centres unmarked)	1 to 5
CN1CCN(c2nnc(C(=O)N3CCc4[nH]cnc4C3c3ccc4ccccc4n3)o2)CC1 (centres unmarked) [listing 1 of 2 here]	1 to 5
FC(F)c1nnc(N2CCc3[nH]cnc3C2c2ccc3ccccc3n2)o1 (centres unmarked)	1 to 5
O=C(c1nnc(N2CCOCC2)o1)N1CCc2[nH]cnc2C1c1ccc2ccccc2n1 (centres unmarked) [listing 1 of 2 here]	1 to 5
Cc1nnc(C(=O)N2CCc3[nH]cnc3C2c2ccc3ccccc3n2)o1 (centres unmarked) [listing 1 of 2 here]	1 to 5
CC(C)(F)c1ccc2c(C(=O)N3CCc4[nH]cnc4C3c3ccc4ccccc4n3)cnn2c1 (centres unmarked) [listing 1 of 2 here]	1 to 5
O=C(c1ncn2ccccc12)N1CCc2[nH]cnc2C1c1ccc2ccccc2n1 (centres unmarked) [listing 1 of 2 here]	1 to 5

Structure (SMILES)	AC50 [µM]
O=C(c1cnn2ccccc12)N1CCc2[nH]cnc2C1c1ccc2ccccc2n1 (centres unmarked)	1 to 5
O=C(C1CC1)N1CCc2[nH]cnc2C1c1ccc2ccccc2n1 (centres unmarked)	1 to 5
O=C(Cc1cnn2ccccc12)N1CCc2[nH]cnc2C1c1ccc2ccccc2n1 (centres unmarked)	1 to 5
O=C(c1cncs1)N1CCc2[nH]cnc2C1c1cc2ccccc2cn1 (centres unmarked)	> 5
Cc1nc(C(C)(C)F)oc1C(=O)N1CCc2[nH]cnc2C1c1cc2ccccc2cn1 (centres unmarked)	1 to 5
Cc1nc(C(C)(C)C)oc1C(=O)N1CCc2[nH]cnc2C1c1cc2ccccc2cn1 (centres unmarked)	1 to 5
O=C(c1ocnc1C1CC1)N1CCCc2[nH]cnc2C1c1cc2ccccc2cn1 (centres unmarked)	> 5
Cn1cc(-c2nc(C3CC3)c(C(=O)N3CCCc4[nH]cnc4C3c3cc4ccccc4cn3)o2)cn1 (centres unmarked)	1 to 5
Cc1ncoc1C(=O)N1CCc2[nH]cnc2C1c1cc2ccccc2cn1 (centres unmarked)	1 to 5
FC(F)c1nnc(N2CCc3[nH]cnc3C2c2cc3ccccc3cn2)o1 (centres unmarked)	> 5
O=C(c1nnc(-c2ccccn2)o1)N1CCCc2[nH]cnc2C1c1cc2ccccc2cn1 (centres unmarked)	1 to 5
FC(F)(F)c1cnc(N2CCc3[nH]cnc3C2c2cc3ccccc3cn2)nc1 (centres unmarked)	1 to 5
Cc1nnc(C(=O)N2CC(C)(C)c3[nH]cnc3C2c2cc3ccccc3cn2)o1 (centres unmarked)	1 to 5
CN(C)Cc1ccc2c(C(=O)N3CC(C)(C)c4[nH]cnc4C3c3cc4ccccc4cn3)cnn2c1 (centres unmarked)	> 5
CN(C)Cc1ccc2c(C(=O)N3CCc4[nH]cnc4C3c3ccc4ccccc4n3)cnn2c1 (centres unmarked) [listing 1 of 2 here]	1 to 5
O=C(c1ccn2ncccc12)N1CCc2[nH]cnc2C1c1ccc2ccccc2n1 (centres unmarked)	1 to 5
CC(C)(O)c1ccc2c(C(=O)N3CCc4[nH]cnc4C3c3cc4ccccc4cn3)cnn2c1 (centres unmarked)	> 5
CC(C)(O)c1ccc2c(C(=O)N3CCc4[nH]cnc4C3c3ccc4ccccc4n3)cnn2c1 (centres unmarked) [listing 2 of 2 here]	> 5
O=C(c1n[nH]c2ccccc12)N1CCc2[nH]cnc2C1c1ccc2ccccc2n1 (centres unmarked) [listing 2 of 2 here]	> 5
O=C(c1cnco1)N1CCc2[nH]cnc2C1c1ccc2ccccc2n1 (centres unmarked) [listing 2 of 2 here]	> 5

Structure (SMILES)	AC50 [µM]
CC(C)(O)c1ncc(C(=O)N2CCc3[nH]cnc3C2c2cc3ccccc3cn2)o1 (centres unmarked)	1 to 5
CC(C)(O)c1ncc(C(=O)N2CCc3[nH]cnc3C2c2ccc3ccccc3n2)s1 (centres unmarked) [listing 2 of 2 here]	> 5
CN1CCN(c2nnc(C(=O)N3CCc4[nH]cnc4C3c3ccc4ccccc4n3)o2)CC1 (centres unmarked) [listing 2 of 2 here]	> 5
O=C(c1nnc(N2CCOCC2)o1)N1CCc2[nH]cnc2C1c1ccc2ccccc2n1 (centres unmarked) [listing 2 of 2 here]	> 5
Cc1nnc(C(=O)N2CCc3[nH]cnc3C2c2ccc3ccccc3n2)o1 (centres unmarked) [listing 2 of 2 here]	> 5
CC(C)(F)c1ccc2c(C(=O)N3CCc4[nH]cnc4C3c3ccc4ccccc4n3)cnn2c1 (centres unmarked) [listing 2 of 2 here]	> 5
O=C(c1ncn2ccccc12)N1CCc2[nH]cnc2C1c1ccc2ccccc2n1 (centres unmarked) [listing 2 of 2 here]	> 5
CN(C)Cc1ccc2c(C(=O)N3CCc4[nH]cnc4C3c3ccc4ccccc4n3)cnn2c1 (centres unmarked) [listing 2 of 2 here]	> 5
CN(C)Cc1ccc2c(C(=O)N3CC4(CC4)c4[nH]cnc4C3c3cc4ccccc4cn3)cnn2c1 (centres unmarked)	1 to 5
C[C@H](O)c1nnc(C(=O)N2CCc3[nH]cnc3[C@H]2c2cc3ccccc3cn2)o1	1 to 5
CC1CN(C(=O)c2nnc(N3CCC(F)CC3)o2)C(c2cc3ccccc3cn2)c2nc[nH]c21 (centres unmarked) [listing 1 of 3 here]	1 to 5
CC1CN(C(=O)c2nnc(N3CCC(F)CC3)o2)C(c2cc3ccccc3cn2)c2nc[nH]c21 (centres unmarked) [listing 2 of 3 here]	1 to 5
Cc1nnc(C(=O)N2CC(C)c3[nH]cnc3C2c2cc3ccccc3cn2)o1 (centres unmarked)	1 to 5
CC1CN(C(=O)c2cnn3cc(CN(C)C)ccc23)C(c2cc3ccccc3cn2)c2nc[nH]c21 (centres unmarked) [listing 1 of 3 here]	1 to 5
CC1CN(C(=O)c2cnn3cc(CN(C)C)ccc23)C(c2cc3ccccc3cn2)c2nc[nH]c21 (centres unmarked) [listing 2 of 3 here]	> 5
CC1CN(C(=O)c2nnc(N3CCC(F)CC3)o2)C(c2cc3ccccc3cn2)c2nc[nH]c21 (centres unmarked) [listing 3 of 3 here]	> 5
CC1CN(C(=O)c2cnn3cc(CN(C)C)ccc23)C(c2cc3ccccc3cn2)c2nc[nH]c21 (centres unmarked) [listing 3 of 3 here]	1 to 5
COC(=O)N1CC(C(=O)N2CCc3[nH]cnc3[C@H]2c2cc3ccccc3cn2)C1	1 to 5
